Results from US20230372337A1, “Combination Therapy Comprising an AXL Inhibitor” (BERGENBIO ASA, priority 2020, published 2023).
Read-outs that look alike come from different tables or passages of the source.

Experiments:
LL2 cells [1] = test: Resazurin viability assay of LL2 cells (Example 4); type: cell-based, mouse
Method: (§1) 4T1 cells (ATCC, CRL-2539) were cultured in RPMI-1640 (Sigma, Cat. #R8758) supplemented with 10% fetal bovine serum (FBS), L-glutamine (4 mM), streptomycin (5 μg/ml) and penicillin (5 U/ml). […] Lewis lung carcinoma cells LL/2 (LLC1) (ATCC, CRL-1642™) were cultured in Dulbecco's Modified Eagle's Medium ATCC® 30-2002™ (4 mM L-glutamine, 4500 mg/L glucose, 1 mM sodium pyruvate, and 1500 mg/L sodium bicarbonate).
(§2) The IC50 of the different drugs were calculated by resazurin viability assay. […] The cells were treated for 48 hours.

LL2 cells [2] = test: qRTPCR of IFN related genes in Lewis lung carcinoma (LL2) cells in vitro (Example 4); type: cell-based, mouse
Method: as §1
RNA was extracted from snap frozen tumors using the RNEasy Microarray Tissue Mini kit from Qiagen following the manufacturer's instructions. As tumors contained Doxorubicin and powderizing them could expose personnel to harmful substances, the RNA was extracted in a closed system using the GentleMACS dissociator and M Tubes. Purity and concentration of RNA was measured using Nanodrop. RT^2 Profiler™ PCR Array. cDNA was synthesized from RNA using the RT^2 First Strand kit (Qiagen) according to the manufacturer's instructions. cDNA was mixed with RT^2 SYBR Green Mastermix (Qiagen) and loaded into RT^2 Profiler™ PCR Array Mouse Type I Interferon Response or RT^2 Profiler™ PCR Array Mouse Epithelial to Mesenchymal Transition (EMT), analyzing the expression of the genes listed in Table 17. The plates were analyzed using Light Cycler 480 (Roche) and data were analyzed using the Qiagen Data Analysis Centre and Graph Pad (Prism).
Chemotherapeutic agents commonly used to treat lung cancer patients were evaluated for effects on the IFN response. Cisplatin, navelbine and docetaxel were tested in vitro in combination with bemcentinib.
as §2

4T1 cells = test: qRTPCR of IFN related genes in 4T1 cells in vitro (Example 4); type: cell-based, mouse; conditions: with or without bemcentinib
Yumm1.7 cells = test: qRTPCR of IFN related genes in Yumm1.7 cells in vitro (Example 4); type: cell-based, mouse; conditions: Yumm1.7 cells; DMXAA treatment; 13 ISG tested
[3] = system: 4T1 mammary carcinoma cells; test: Tumor growth, 4T1 model (Example 2); parameters: species or system Balb/c mice; conditions: short in vivo study, single i.t. injection day 15
Method: Tumor growth was measured with a digital handheld caliper twice weekly from emergence of tumor and until the day of euthanasia

[4] = system: type I IFN related genes (ISG); test: RT2 Profiler PCR Array Mouse Type I Interferon Response on 4T1 tumors (Example 2); type: in vivo, Balb/c mice
Description: Bemcentinib was given as a loading dose for 3 days (11-13 after tumor implantation) and then as a standard dose until sacrifice.
9 mice have been excluded of the study because of the absence of tumor on day 11. On day 11 post implantation half of the cages were placed in the bemcentinib treated group and the other half in the […]. The average tumor volume when bemcentinib treatment was initiated (day 11) was 54.99 mm^3. […] The tumor volumes when bemcentinib treatment was initiated and the day of randomization are recorded in table 8. The intra tumomoral injection of doxorubicin and sting agonists was adjusted to the tumor volume.
Doxorubicin is provided in a 2 mg/ml solution. As it is technically challenging to inject 50 ul liquid into tumors measuring <100 mm^3, the total dosing volume was calculated based on the following formula: V=50 ul×(TV/120). This is done to minimize variability due to leakage during intratumoral injection. For the 1 mg/kg dose (E,F) Doxorubicin was given at a concentration of 0.5 mg/ml, which corresponds to 1 mg/kg for a 25 g mouse with a tumor of 120 mm^3, and 1 mg/kg for a 20 g mouse with a tumor of 100 mm^3. For 3 mg/kg dose (G,H), a solution of 1.5 mg/ml was used and same volumes was injected. For the 6 mg/kg dose (I,J) the commercial solution of 2 mg/ml will be used and 75 ul was injected for tumor with a volume of 120 mm^3.
The same formula as for doxorubicin was used V=50 ul×(TV/120).
RNA was extracted from […] snap frozen tumors using the RNEasy Microarray Tissue Mini kit from Qiagen following the manufacturer's instructions. As tumors contained Doxorubicin and powderizing them could expose personnel to harmful substances, the RNA was extracted in a closed system using the GentleMACS dissociator and M Tubes. Purity and concentration of RNA was measured using Nanodrop. cDNA was synthesized from RNA using the RT^2 First Strand kit (Qiagen) according to the manufacturer's instructions. cDNA was mixed with RT^2 SYBR Green Mastermix (Qiagen) and loaded into RT Profiler™ PCR Array Mouse Type I Interferon Response or RT^2 Profiler™ PCR Array Mouse Epithelial to Mesenchymal Transition (EMT), analyzing the expression of 84 genes listed in Tables 9 and 10. The plates were analyzed using Light Cycler 480 (Roche) and data were analyzed using the Qiagen Data Analysis Centre and Graph Pad (Prism).
Quiagen RT^2 software was used to analyze all the samples from different groups. To be able to generate heatmaps and graph on fold change including error bars, the data have been analyzed manually with Graph Pad (Prism) when the Quiagen RT^2 software gave significant results between the different groups. For IFN type 1 response 1 mg/kg 48, 72 h and 3 mg/kg 48 h, were analyzed manually. For EMT, 1 mg/kg 48, 72 h, 3 mg/kg 72 h. When the data have been analyzed manually, the results are presented as histograms of mRNA fold changes. For the time points and doses analyzed by the software, the results are presented as tables.
GraphPadPrism was used to generate the heat maps, graphs with mRNA fold change, and to make the statistics. Multiple TTests, paired were performed on ΔΔ Ct values.
The expression of type I IFN related genes (ISG) was assessed in tumors collected 24, 48 and 72 hours after i.t. doxorubicin treatment. 3 groups were compared per timepoint: bemcentinib (bern), doxorubicin only (dox) and doxorubicin combined with bemcentinib (doxbern), the fold changes were compared with the control groups injected with PBS, and the fold change was 1 for the control groups.

43 mouse cytokines = test: Plasma cytokines, ProcartaPlex Multiplex Immunoassay (Luminex) (Example 2); type: in vivo, Balb/c mice; conditions: DMXAA, 48 h post injection, treated groups
Method: The manufacturer user guide was followed. The samples were analyzed by (MAGPIX) and the results were obtained as concentration in pg/ml of mouse plasma. At least 3 samples per group, 4 for many, were analyzed.

[5] = in the presence of bemcentinib, read-out: IC50 with bem
[6] = Mus musculus, LL/2, read-out: IC50 without bem

In the case of `N.N.[Cl][Pt][Cl]` [Cisplatin, cisplatin], the IC50 (LL2 cells [1]; [5]) is reported as 4650 nM, the IC50 (LL2 cells [1]; read-out: IC50 without bem) is reported as 6190 nM and the “ISGs upregulated compared to control (number)” value (LL2 cells [2]; cisplatin 5 uM, 48 hours) is reported as 11.
With `Cc1ccc2c(=O)c3cccc(CC(=O)O)c3oc2c1C` [DMXAA, 5,6-Dimethylxanthenone-4-acetic Acid] the IC50 without bem (LL2 cells [1]) was “No effect”, the IC50 with bem (LL2 cells [1]; in the presence of bemcentinib) was “No effect” and the “IFN response after DMXAA stimulation” value (4T1 cells) was “No significant changes”. The “ISG upregulated (number)” value (Yumm1.7 cells) was 4, the “ISG upregulated compared to control (number)” value (LL2 cells [2]; DMXAA 25 ug/ml, 48 hours) was 20 and the Tumor growth [3] was “decreased tumor growth”. The “ISG significantly upregulated compared to control (number)” value ([4]; 24 hours after DMXAA i.t. treatment) was 8, the “ISG upregulated (number)” value ([4]; 48 hours after DMXAA injection) was 1 and the “Cytokines with different concentration compared with controls (number)” value (43 mouse cytokines) was 8.
`CC(=O)O[C@@]12CO[C@@H]1C[C@H](O)[C@@]1(C)C(=O)[C@H](O)C3=C(C)[C@@H](OC(=O)[C@H](O)[C@@H](NC(=O)OC(C)(C)C)c4ccccc4)C[C@@](O)([C@@H](OC(=O)c4ccccc4)[C@H]21)C3(C)C` [Docetaxel, docetaxel] was tested, and the IC50 (LL2 cells [1]; [6]) was 14.1 nM, the IC50 (LL2 cells [1]; [5]) was 7.26 nM and the “ISG significantly upregulated compared to control (number)” value (LL2 cells [2]; docetaxel 5 nM) was 2.
In the case of `CCC1=C[C@@H]2CN(C1)Cc1c([nH]c3ccccc13)[C@@](C(=O)OC)(c1cc3c(cc1OC)N(C)[C@H]1[C@@](O)(C(=O)OC)[C@H](OC(C)=O)[C@]4(CC)C=CCN5CC[C@]31[C@@H]54)C2` [Navelbine, vinorelbine], the IC50 (LL2 cells [1]; [6]) is reported as 10.1 nM, the IC50 (LL2 cells [1]; [5]) is reported as 0.752 nM and the “ISG upregulated (number)” value (LL2 cells [2]; navelbine 1 nM, 48 hours) is reported as “Four”.
